# Measurements published in ChEMBL document CHEMBL1806399, “Synthesis and SAR of new pyrazolo[4,3-h]quinazoline-3-carboxamide derivatives as potent and selective MPS1 kinase inhibitors” (Bioorg Med Chem Lett, 2011).
# Molecular target: T1, Dual specificity protein kinase TTK (Homo sapiens, UniProt P33981)
# T1 sequence (P33981 whole entry): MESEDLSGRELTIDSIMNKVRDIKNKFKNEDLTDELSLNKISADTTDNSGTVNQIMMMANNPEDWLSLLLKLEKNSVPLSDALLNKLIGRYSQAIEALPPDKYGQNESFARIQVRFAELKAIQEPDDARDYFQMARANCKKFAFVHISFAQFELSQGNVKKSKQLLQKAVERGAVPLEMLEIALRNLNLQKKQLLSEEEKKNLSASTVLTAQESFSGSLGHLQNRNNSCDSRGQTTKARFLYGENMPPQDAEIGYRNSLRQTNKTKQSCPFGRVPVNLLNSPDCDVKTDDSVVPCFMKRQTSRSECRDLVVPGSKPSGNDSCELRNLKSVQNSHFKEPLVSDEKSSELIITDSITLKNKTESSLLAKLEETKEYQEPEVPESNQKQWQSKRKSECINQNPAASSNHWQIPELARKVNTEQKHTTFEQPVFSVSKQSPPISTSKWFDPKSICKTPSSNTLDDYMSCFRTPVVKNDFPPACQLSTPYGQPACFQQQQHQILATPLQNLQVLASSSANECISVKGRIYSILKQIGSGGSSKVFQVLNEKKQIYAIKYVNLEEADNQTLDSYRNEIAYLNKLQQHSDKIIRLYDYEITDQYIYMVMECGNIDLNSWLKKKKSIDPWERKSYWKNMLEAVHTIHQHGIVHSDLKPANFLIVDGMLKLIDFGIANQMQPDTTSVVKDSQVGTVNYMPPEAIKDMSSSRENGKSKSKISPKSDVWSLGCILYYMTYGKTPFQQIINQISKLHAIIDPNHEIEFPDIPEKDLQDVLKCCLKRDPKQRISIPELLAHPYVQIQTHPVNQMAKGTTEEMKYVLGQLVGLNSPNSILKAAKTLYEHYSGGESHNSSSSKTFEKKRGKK
# Assay: Inhibition of MPS1 assessed as [33P]-gamma-ATP incorporation into substrate P38-betatide by gamma counting
# Details: not given
row,SMILES,IC50 [nM]
1,CCc1cccc(CC)c1NC(=O)c1nn(C)c2c1CCc1cnc(Nc3ccccc3OC(F)(F)F)nc1-2,823
2,CNC(=O)c1nn(C)c2c1CCc1cnc(Nc3ccccc3)nc1-2,2170
3,CCc1cccc(CC)c1NC(=O)c1nn(C)c2c1CCc1cnc(Nc3ccc(C(=O)N4CCC[C@H]4CN4CCCC4)cc3OC(F)(F)F)nc1-2,202
4,CCc1cccc(CC)c1NC(=O)c1nn(C)c2c1CCc1cnc(Nc3ccc(C(=O)N4CCCN(C)CC4)cc3OC(F)(F)F)nc1-2,146

# The next molecules have a lower IC50 than those just listed; values first:
row,IC50 [nM],SMILES
1,103,CCc1cccc(CC)c1NC(=O)c1nn(C)c2c1CCc1cnc(Nc3ccc(C(=O)N4CCC[C@@H]4CN4CCCC4)cc3OC)nc1-2
2,72,CCc1cccc(CC)c1NC(=O)c1nn(C)c2c1CCc1cnc(Nc3ccc(C(=O)N4CCC[C@H]4CN4CCCC4)cc3OC)nc1-2

# Molecular target: T2, Aurora kinase A (Homo sapiens, UniProt O14965)
# T2 sequence (O14965 whole entry): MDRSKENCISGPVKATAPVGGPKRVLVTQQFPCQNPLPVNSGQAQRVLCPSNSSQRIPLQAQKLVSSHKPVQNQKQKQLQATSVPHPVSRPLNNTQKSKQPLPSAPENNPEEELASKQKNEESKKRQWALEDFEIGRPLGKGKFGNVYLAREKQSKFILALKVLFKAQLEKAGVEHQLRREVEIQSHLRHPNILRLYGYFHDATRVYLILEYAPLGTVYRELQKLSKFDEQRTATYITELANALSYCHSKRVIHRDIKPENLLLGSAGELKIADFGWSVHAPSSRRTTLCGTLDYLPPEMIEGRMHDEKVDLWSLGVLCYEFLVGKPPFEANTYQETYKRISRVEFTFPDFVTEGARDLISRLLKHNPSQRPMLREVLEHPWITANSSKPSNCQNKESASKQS
# Assay: Inhibition of Aur-A assessed as [33P]-gamma-ATP incorporation into substrate by gamma counting
# Details: not given
row,SMILES,IC50 [nM]
1,CCc1cccc(CC)c1NC(=O)c1nn(C)c2c1CCc1cnc(Nc3ccccc3OC(F)(F)F)nc1-2,> 10000
2,CCc1cccc(CC)c1NC(=O)c1nn(C)c2c1CCc1cnc(Nc3ccc(C(=O)N4CCC[C@H]4CN4CCCC4)cc3OC(F)(F)F)nc1-2,> 10000
3,CCc1cccc(CC)c1NC(=O)c1nn(C)c2c1CCc1cnc(Nc3ccc(C(=O)N4CCCN(C)CC4)cc3OC(F)(F)F)nc1-2,> 10000

# Continued, values first:
row,IC50 [nM],SMILES
1,1380,CCc1cccc(CC)c1NC(=O)c1nn(C)c2c1CCc1cnc(Nc3ccc(C(=O)N4CCC[C@@H]4CN4CCCC4)cc3OC)nc1-2
2,491,CCc1cccc(CC)c1NC(=O)c1nn(C)c2c1CCc1cnc(Nc3ccc(C(=O)N4CCC[C@H]4CN4CCCC4)cc3OC)nc1-2

# Molecular target: Cyclin-dependent kinase 2/cyclin A (Homo sapiens, UniProt P24941)
# Assay: Inhibition of CDK2/Cyclin A assessed as [33P]-gamma-ATP incorporation into substrate by gamma counting
# Format: protein-complex assay
# Details: not given
row,SMILES,IC50 [nM]
1,CCc1cccc(CC)c1NC(=O)c1nn(C)c2c1CCc1cnc(Nc3ccccc3OC(F)(F)F)nc1-2,> 10000
2,CCc1cccc(CC)c1NC(=O)c1nn(C)c2c1CCc1cnc(Nc3ccc(C(=O)N4CCC[C@H]4CN4CCCC4)cc3OC(F)(F)F)nc1-2,> 10000
3,CCc1cccc(CC)c1NC(=O)c1nn(C)c2c1CCc1cnc(Nc3ccc(C(=O)N4CCCN(C)CC4)cc3OC(F)(F)F)nc1-2,> 10000

# The remaining lines, values ahead:
row,IC50 [nM],SMILES
1,> 10000,CCc1cccc(CC)c1NC(=O)c1nn(C)c2c1CCc1cnc(Nc3ccc(C(=O)N4CCC[C@@H]4CN4CCCC4)cc3OC)nc1-2
2,> 10000,CCc1cccc(CC)c1NC(=O)c1nn(C)c2c1CCc1cnc(Nc3ccc(C(=O)N4CCC[C@H]4CN4CCCC4)cc3OC)nc1-2

# Molecular target: Serine/threonine-protein kinase PLK1 (Homo sapiens, UniProt P53350)
# Sequence (P53350 whole entry): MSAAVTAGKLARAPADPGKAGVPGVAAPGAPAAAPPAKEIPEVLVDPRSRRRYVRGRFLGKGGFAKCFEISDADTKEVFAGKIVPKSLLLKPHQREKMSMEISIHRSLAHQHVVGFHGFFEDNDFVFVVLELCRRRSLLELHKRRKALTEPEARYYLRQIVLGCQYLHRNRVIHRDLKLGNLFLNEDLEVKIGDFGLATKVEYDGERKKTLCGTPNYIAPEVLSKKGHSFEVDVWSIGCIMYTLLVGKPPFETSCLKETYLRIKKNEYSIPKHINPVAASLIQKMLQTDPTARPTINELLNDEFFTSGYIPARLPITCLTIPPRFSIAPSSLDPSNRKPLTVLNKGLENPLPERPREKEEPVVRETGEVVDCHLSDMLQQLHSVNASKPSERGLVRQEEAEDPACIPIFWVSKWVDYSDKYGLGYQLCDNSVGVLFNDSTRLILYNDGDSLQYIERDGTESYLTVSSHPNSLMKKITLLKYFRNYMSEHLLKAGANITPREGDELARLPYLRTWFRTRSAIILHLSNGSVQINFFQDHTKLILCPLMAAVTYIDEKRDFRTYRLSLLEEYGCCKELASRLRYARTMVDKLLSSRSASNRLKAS
# Assay: Inhibition of PLK1 assessed as [33P]-gamma-ATP incorporation into substrate by gamma counting
# Details: not given
row,SMILES,IC50 [nM]
1,CCc1cccc(CC)c1NC(=O)c1nn(C)c2c1CCc1cnc(Nc3ccccc3OC(F)(F)F)nc1-2,> 10000
2,CCc1cccc(CC)c1NC(=O)c1nn(C)c2c1CCc1cnc(Nc3ccc(C(=O)N4CCC[C@H]4CN4CCCC4)cc3OC(F)(F)F)nc1-2,> 10000
3,CCc1cccc(CC)c1NC(=O)c1nn(C)c2c1CCc1cnc(Nc3ccc(C(=O)N4CCCN(C)CC4)cc3OC(F)(F)F)nc1-2,> 10000

# Now from value to molecule:
row,IC50 [nM],SMILES
1,> 10000,CCc1cccc(CC)c1NC(=O)c1nn(C)c2c1CCc1cnc(Nc3ccc(C(=O)N4CCC[C@@H]4CN4CCCC4)cc3OC)nc1-2
2,> 10000,CCc1cccc(CC)c1NC(=O)c1nn(C)c2c1CCc1cnc(Nc3ccc(C(=O)N4CCC[C@H]4CN4CCCC4)cc3OC)nc1-2

# System: A2780
# Assay: Antiproliferative activity in human A2780 cells after 72 hrs by CellTiter-Glo assay
# Format: functional, cell-based
# Details: A2780, 72 h
row,SMILES,IC50 [nM]
1,CCc1cccc(CC)c1NC(=O)c1nn(C)c2c1CCc1cnc(Nc3ccccc3OC(F)(F)F)nc1-2,2860
2,CCc1cccc(CC)c1NC(=O)c1nn(C)c2c1CCc1cnc(Nc3ccc(C(=O)N4CCC[C@H]4CN4CCCC4)cc3OC(F)(F)F)nc1-2,407
3,CCc1cccc(CC)c1NC(=O)c1nn(C)c2c1CCc1cnc(Nc3ccc(C(=O)N4CCCN(C)CC4)cc3OC(F)(F)F)nc1-2,244

# Second part, the molecule after the results:
row,IC50 [nM],SMILES
1,83,CCc1cccc(CC)c1NC(=O)c1nn(C)c2c1CCc1cnc(Nc3ccc(C(=O)N4CCC[C@@H]4CN4CCCC4)cc3OC)nc1-2
2,73,CCc1cccc(CC)c1NC(=O)c1nn(C)c2c1CCc1cnc(Nc3ccc(C(=O)N4CCC[C@H]4CN4CCCC4)cc3OC)nc1-2

# System: not listed separately
# Assay: Solubility of the compound at pH 7
# Format: physicochemical
# Details: buffer
row,SMILES,solubility [µM]
1,CCc1cccc(CC)c1NC(=O)c1nn(C)c2c1CCc1cnc(Nc3ccccc3OC(F)(F)F)nc1-2,< 1
2,CCc1cccc(CC)c1NC(=O)c1nn(C)c2c1CCc1cnc(Nc3ccc(C(=O)N4CCC[C@H]4CN4CCCC4)cc3OC(F)(F)F)nc1-2,69
3,CCc1cccc(CC)c1NC(=O)c1nn(C)c2c1CCc1cnc(Nc3ccc(C(=O)N4CCCN(C)CC4)cc3OC(F)(F)F)nc1-2,46

# Further lines, results first:
row,solubility [µM],SMILES
1,110,CCc1cccc(CC)c1NC(=O)c1nn(C)c2c1CCc1cnc(Nc3ccc(C(=O)N4CCC[C@@H]4CN4CCCC4)cc3OC)nc1-2
2,96,CCc1cccc(CC)c1NC(=O)c1nn(C)c2c1CCc1cnc(Nc3ccc(C(=O)N4CCC[C@H]4CN4CCCC4)cc3OC)nc1-2

# System: U2OS
# Assay: Inhibition of mitosis in human U2OS cells assessed as histone H3 phosphorylation at Ser 10 residue after 2 hrs by immunoassay
# Format: functional, cell-based
# Details: not given
row,SMILES,IC50 [nM]
1,CCc1cccc(CC)c1NC(=O)c1nn(C)c2c1CCc1cnc(Nc3ccc(C(=O)N4CCC[C@H]4CN4CCCC4)cc3OC(F)(F)F)nc1-2,260
2,CCc1cccc(CC)c1NC(=O)c1nn(C)c2c1CCc1cnc(Nc3ccc(C(=O)N4CCCN(C)CC4)cc3OC(F)(F)F)nc1-2,32

# Second part, the molecule after the results:
row,IC50 [nM],SMILES
1,11,CCc1cccc(CC)c1NC(=O)c1nn(C)c2c1CCc1cnc(Nc3ccc(C(=O)N4CCC[C@@H]4CN4CCCC4)cc3OC)nc1-2
2,13,CCc1cccc(CC)c1NC(=O)c1nn(C)c2c1CCc1cnc(Nc3ccc(C(=O)N4CCC[C@H]4CN4CCCC4)cc3OC)nc1-2

# System: not listed separately
# Assay: Half life in mouse at 10 mg/kg, iv
# Format: ADME, organism-based
# Design: dose 10 mg/kg, route intravenous
# Details: in vivo
row,half-life [h],SMILES
1,1.61,CCc1cccc(CC)c1NC(=O)c1nn(C)c2c1CCc1cnc(Nc3ccc(C(=O)N4CCCN(C)CC4)cc3OC(F)(F)F)nc1-2

# System: not listed separately
# Assay: Clearance in mouse at 10 mg/kg, iv
# Format: ADME, organism-based
# Design: dose 10 mg/kg, route intravenous
# Details: in vivo
row,clearance [mL/min/kg],SMILES
1,77.5,CCc1cccc(CC)c1NC(=O)c1nn(C)c2c1CCc1cnc(Nc3ccc(C(=O)N4CCCN(C)CC4)cc3OC(F)(F)F)nc1-2

# System: not listed separately
# Assay: AUC in mouse at 10 mg/kg, iv
# Format: ADME, organism-based
# Design: dose 10 mg/kg, route intravenous
# Details: plasma
row,AUC [µM·h],SMILES
1,2.9,CCc1cccc(CC)c1NC(=O)c1nn(C)c2c1CCc1cnc(Nc3ccc(C(=O)N4CCCN(C)CC4)cc3OC(F)(F)F)nc1-2

# System: not listed separately
# Assay: Volume of distribution at steady state in mouse at 10 mg/kg, iv
# Format: ADME, organism-based
# Design: dose 10 mg/kg, route intravenous
# Details: in vivo, read-out: Vdss
row,Vd [L/kg],SMILES
1,8.41,CCc1cccc(CC)c1NC(=O)c1nn(C)c2c1CCc1cnc(Nc3ccc(C(=O)N4CCCN(C)CC4)cc3OC(F)(F)F)nc1-2

# System: not listed separately
# Assay: Half life in mouse at 10 mg/kg, po
# Format: ADME, organism-based
# Design: dose 10 mg/kg, route oral
# Details: in vivo
row,half-life [h],SMILES
1,2.92,CCc1cccc(CC)c1NC(=O)c1nn(C)c2c1CCc1cnc(Nc3ccc(C(=O)N4CCCN(C)CC4)cc3OC(F)(F)F)nc1-2

# System: not listed separately
# Assay: Cmax in mouse at 10 mg/kg, po
# Format: ADME, organism-based
# Design: dose 10 mg/kg, route oral
# Details: in vivo
row,Cmax [nM],SMILES
1,245,CCc1cccc(CC)c1NC(=O)c1nn(C)c2c1CCc1cnc(Nc3ccc(C(=O)N4CCCN(C)CC4)cc3OC(F)(F)F)nc1-2

# System: not listed separately
# Assay: AUC in mouse at 10 mg/kg, po
# Format: ADME, organism-based
# Design: dose 10 mg/kg, route oral
# Details: plasma
row,AUC [µM·h],SMILES
1,0.64,CCc1cccc(CC)c1NC(=O)c1nn(C)c2c1CCc1cnc(Nc3ccc(C(=O)N4CCCN(C)CC4)cc3OC(F)(F)F)nc1-2

# System: not listed separately
# Assay: Oral bioavailability in mouse at 10 mg/kg
# Format: ADME, organism-based
# Details: in vivo
row,bioavailability [%],SMILES
1,22.4,CCc1cccc(CC)c1NC(=O)c1nn(C)c2c1CCc1cnc(Nc3ccc(C(=O)N4CCCN(C)CC4)cc3OC(F)(F)F)nc1-2
